Assay results as given in paper PMC10620963, “Two-carbon tethered artemisinin–isatin hybrids: design, synthesis, anti-breast cancer potential, and in silico study” (Frontiers in Molecular Biosciences, 2023).

How the values were obtained:
[1] = test system: MCF-7 breast cancer cell line; test: MTT antiproliferative assay, MCF-7; assay type: cell-based, human; details: for IC50: Homo sapiens, MCF7, MTT, 24 h treatment, mean ± S.D., n = 3
Experimental: (§1) The antiproliferative activity and cytotoxicity of ART–isatin hybrids 4a–k against MCF-7 (CL-0149, purchased from Procell), MDA-MB-231 (CL-0150A, purchased from Procell), and MDA-MB-231/ADR (AC337895, purchased from CASMART) breast cancer cell lines, as well as MCF-10A (CL-0525, purchased from Procell), were assessed by the 3-(4,5-dimethylthiazol-2-yl)-2,5-diphenyltetrazolium bromide (MTT) assay. ART, DHA, and Adriamycin (ADR) were used as positive controls. The selectivity index (SI: IC50(MCF-10A)/IC50(MCF-7)) and resistance index (RI: IC50(MDA-MB-231/ADR)/IC50(MDA-MB-231)) are presented in Table 3.
(§2) MCF-7, MDA-MB-231 and MDA-MB-231/ADR breast cancer cells (2×10^3) were plated in each well of a 96-well plate and were allowed to adhere and spread for 24 h. Cells were treated with a range of different concentrations of ART-isatin hybrids 4a-k (1, 5, 10, 20, 50, 100 µM) and reference drugs artemisinin, dihydroartemisinin, and adriamycin (1, 5, 10, 20, 50, 100 µM) and were cultured for 24 h at 37 °C. 3-(4,5-dimethyl-2-thiazolyl)-2,5-diphenyltetrazolium bromide (MTT) solution (10 µL) was added to each well, and the cultures were incubated for an additional 4 h. A further 100 µL of […] was added and incubation continued overnight. The absorbance was read at 540 nm in EnSpire, multimode reader and IC50 concentration was calculated and indicated as means SD of three in-dependent experiments. The percentage relative cell viability was determined according to the following formula: Percentage cell viability = A at 570 nm of treated samples/A at 570 nm of untreated samples × 100.
(§3) The statistical analysis was performed using Excel © and IC50 values were estimated using GraphpadPrism5 software (Hearne Scientific Software). The experiments were performed in duplicate and the statistical significance was calculated using the student’s t-test. A p-value of less than 0.05 was used to estimate the significance of the observations. A Z-factor was calculated for each 96-well plate and assays having Z-factor above 0.05 were included in the statistical analysis.

[2] = test system: MDA-MB-231 breast cancer cell line; test: MTT antiproliferative assay, MDA-MB-231; assay type: cell-based; details: Homo sapiens, 24 h treatment, mean ± S.D., n = 3
Experimental: as §1, §2, §3

[3] = test system: MDA-MB-231/ADR (Adriamycin-resistant MDA-MB-231 cell line); test: MTT antiproliferative assay, MDA-MB-231/ADR; assay type: cell-based; details: Homo sapiens, 24 h treatment, mean ± S.D., n = 3
Experimental: as §1, §2, §3

[4] = MTT cytotoxicity assay, MCF-10A; assay type: cell-based; details: human, MCF-10A normal breast cells, 72 h exposure
Experimental: as §1
The cytotoxicity (CC50) of ART-isatin hybrids 4a-k and reference drugs artemisinin, dihydroartemisinin, and adriamycin were examined by the MTT assay in MCF-10A cells. The compounds were dissolved in DMSO with different concentrations. The MCF-10A cells were maintained in culture medium at 37 °C under 5% CO2 atmosphere. Cells were seeded in 96-well plates (1×10^4 cell per well) and allowed to recover for 24 h. After 72 h of exposure, cells were harvested, and cell viability was assessed by MTT assay.
as §3

[5] = test system: MCF-7, MDA-MB-231, and MDA-MB-231/ADR breast cancer cell lines; test: MTT antiproliferative assay, span over the three breast cancer cell lines; assay type: cell-based; details: Homo sapiens; span over MCF-7, MDA-MB-231, MDA-MB-231/ADR; read-out: IC50 range against the three tested breast cancer cell lines
Experimental: as §1
MCF-7, MDA-MB-231 and MDA-MB-231/ADR breast cancer cells (2×10^3) were plated in each well of a 96-well plate and were allowed to adhere and spread for 24 h. […] The absorbance was read at 540 nm in EnSpire, multimode reader and IC50 concentration was calculated and indicated as means SD of three in-dependent experiments. The percentage relative cell viability was determined according to the following formula: Percentage cell viability = A at 570 nm of treated samples/A at 570 nm of untreated samples × 100.
The statistical analysis was performed using Excel © and IC50 values were estimated using GraphpadPrism5 software (Hearne Scientific Software). The experiments were performed in duplicate and the statistical significance was calculated using the student’s t-test. […]

With `COc1cccc2c1C(=O)c1c(O)c3c(c(O)c1C2=O)C[C@@](O)(C(=O)CO)C[C@@H]3O[C@H]1C[C@H](N)[C@H](O)[C@H](C)O1` [ADR, Adriamycin, reference compound] the “SI, selectivity index, IC50(MCF-10A)/IC50(MCF-7)” value (from here on “SI, selectivity index”) [1] was 3.6, the IC50 [1] was 18.9 ± 1.2 µM and the IC50 [2] was 4.46 ± 0.1 µM. The IC50 [3] was greater than 100 µM and the IC50 at 72 h [4] was 68.8 µM.
In the case of `C[C@@H]1CC[C@H]2[C@@H](C)C(=O)O[C@@H]3O[C@@]4(C)CC[C@@H]1[C@]32OO4` [ART, artemisinin], the “SI, selectivity index” value [1] is reported as greater than 1.1, the IC50 [1] is reported as 87.6 ± 6.6 µM and the IC50 [2] is reported as 72.4 ± 5.3 µM. For the same molecule, the IC50 [3] was greater than 100 µM and the IC50 at 72 h [4] was greater than 100 µM.
For `C[C@H]1[C@@H](O)O[C@@H]2O[C@@]3(C)CC[C@H]4[C@H](C)CC[C@@H]1[C@@]24OO3` [DHA, dihydroartemisinin, reference compound], the “SI, selectivity index” value [1] was greater than 1.3, the IC50 [1] was 73.2 ± 5.9 µM and the IC50 [2] was 69.6 ± 4.7 µM. It also gave an IC50 [3] of 82.8 ± 6.8 µM, an IC50 at 72 h [4] greater than 100 µM and an IC50 [5] of 69.6 to 89.8 µM.
In the case of `C[C@@H]1CC[C@H]2[C@@H](C)C(OCCN3C(=O)C(=O)c4ccccc43)O[C@@H]3O[C@@]4(C)CC[C@@H]1[C@]32OO4` (stereo partly drawn) [Hybrid 4a, 1-(2-(((3R,5aS,6R,8aS,9R,12R,12aR)-3,6,9-trimethyldecahydro-12H-3,12-epoxy[1,2]dioxepino[4,3-i]isochromen-10-yl)oxy)ethyl)indoline-2,3-dione], the “SI, selectivity index” value [1] is reported as greater than 7.9, the IC50 [1] is reported as 12.6 ± 2.1 µM and the IC50 [2] is reported as 3.83 ± 0.1 µM. The IC50 [3] was 2.49 ± 0.1 µM, the IC50 at 72 h [4] was greater than 100 µM and the IC50 [5] was 2.49 to 12.6 µM.
In the case of `C[C@@H]1CC[C@H]2[C@@H](C)C(OCCN3C(=O)C(=O)c4cc(F)ccc43)O[C@@H]3O[C@@]4(C)CC[C@@H]1[C@]32OO4` (stereo partly drawn) [Hybrid 4b, 5-fluoro-1-(2-(((3R,5aS,6R,8aS,9R,12R,12aR)-3,6,9-trimethyldecahydro-12H-3,12-epoxy[1,2]dioxepino[4,3-i]isochromen-10-yl)oxy)ethyl)indoline-2,3-dione], the “SI, selectivity index” value [1] is reported as greater than 3.7, the IC50 [1] is reported as 26.7 ± 2.4 µM and the IC50 [2] is reported as 18.6 ± 1.5 µM. It also gave an IC50 [3] of 21.4 ± 3.1 µM and an IC50 at 72 h [4] greater than 100 µM.
In the case of `COc1ccc2c(c1)C(=O)C(=O)N2CCOC1O[C@@H]2O[C@@]3(C)CC[C@H]4[C@H](C)CC[C@@H]([C@H]1C)[C@@]24OO3` (stereo partly drawn) [Hybrid 4c, 5-methoxy-1-(2-(((3R,5aS,6R,8aS,9R,12R,12aR)-3,6,9-trimethyldecahydro-12H-3,12-epoxy[1,2]dioxepino[4,3-i]isochromen-10-yl)oxy)ethyl)indoline-2,3-dione], the “SI, selectivity index” value [1] is reported as greater than 2.9, the IC50 [1] is reported as 33.8 ± 3.2 µM and the IC50 [2] is reported as 27 ± 2.2 µM. For the same molecule, the IC50 [3] was 25.1 ± 1.9 µM and the IC50 at 72 h [4] was greater than 100 µM.
For `CON=C1C(=O)N(CCOC2O[C@@H]3O[C@@]4(C)CC[C@H]5[C@H](C)CC[C@@H]([C@H]2C)[C@@]35OO4)c2ccccc21` (stereo partly drawn) [Hybrid 4d, 3-(methoxyimino)-1-(2-(((3R,5aS,6R,8aS,9R,12R,12aR)-3,6,9-trimethyldecahydro-12H-3,12-epoxy[1,2]dioxepino[4,3-i]isochromen-10-yl)oxy)ethyl)indolin-2-one], the “SI, selectivity index” value [1] was greater than 3.5, the IC50 [1] was 28.5 ± 2.3 µM and the IC50 [2] was 16.2 ± 1.8 µM. For the same molecule, the IC50 [3] was 19.7 ± 1.2 µM and the IC50 at 72 h [4] was greater than 100 µM.
In the case of `CO/N=C1/C(=O)N(CCOC2O[C@@H]3O[C@@]4(C)CC[C@H]5[C@H](C)CC[C@@H]([C@H]2C)[C@@]35OO4)c2ccc(F)cc21` (stereo partly drawn) [Hybrid 4e, (E)-5-fluoro-3-(methoxyimino)-1-(2-(((3R,5aS,6R,8aS,9R,12R,12aR)-3,6,9-trimethyldecahydro-12H-3,12-epoxy[1,2]dioxepino[4,3-i]isochromen-10-yl)oxy)ethyl)indolin-2-one], the “SI, selectivity index” value [1] is reported as greater than 1.3, the IC50 [1] is reported as 73.3 ± 5.6 µM and the IC50 [2] is reported as 49.6 ± 3.8 µM. The IC50 [3] was 64.7 ± 4.9 µM and the IC50 at 72 h [4] was greater than 100 µM.
In the case of `CON=C1C(=O)N(CCOC2O[C@@H]3O[C@@]4(C)CC[C@H]5[C@H](C)CC[C@@H]([C@H]2C)[C@@]35OO4)c2ccc(OC)cc21` (stereo partly drawn) [Hybrid 4f, 5-methoxy-3-(methoxyimino)-1-(2-(((3R,5aS,6R,8aS,9R,12R,12aR)-3,6,9-trimethyldecahydro-12H-3,12-epoxy[1,2]dioxepino[4,3-i]isochromen-10-yl)oxy)ethyl)indolin-2-one], the “SI, selectivity index” value [1] is reported as greater than 2.6, the IC50 [1] is reported as 37.9 ± 3.3 µM and the IC50 [2] is reported as 20.4 ± 1.7 µM. For the same molecule, the IC50 [3] was 33.8 ± 3 µM and the IC50 at 72 h [4] was greater than 100 µM.
With `CCON=C1C(=O)N(CCOC2O[C@@H]3O[C@@]4(C)CC[C@H]5[C@H](C)CC[C@@H]([C@H]2C)[C@@]35OO4)c2ccccc21` (stereo partly drawn) [Hybrid 4g, 3-(ethoxyimino)-1-(2-(((3R,5aS,6R,8aS,9R,12R,12aR)-3,6,9-trimethyldecahydro-12H-3,12-epoxy[1,2]dioxepino[4,3-i]isochromen-10-yl)oxy)ethyl)indolin-2-one] the “SI, selectivity index” value [1] was greater than 2.0, the IC50 [1] was 48.2 ± 3.7 µM and the IC50 [2] was 37.6 ± 2.4 µM. For the same molecule, the IC50 [3] was 28.4 ± 2.1 µM and the IC50 at 72 h [4] was greater than 100 µM.
In the case of `CCON=C1C(=O)N(CCOC2O[C@@H]3O[C@@]4(C)CC[C@H]5[C@H](C)CC[C@@H]([C@H]2C)[C@@]35OO4)c2ccc(F)cc21` (stereo partly drawn) [Hybrid 4h, 3-(ethoxyimino)-5-fluoro-1-(2-(((3R,5aS,6R,8aS,9R,12R,12aR)-3,6,9-trimethyldecahydro-12H-3,12-epoxy[1,2]dioxepino[4,3-i]isochromen-10-yl)oxy)ethyl)indolin-2-one], the “SI, selectivity index” value [1] is reported as greater than 1.4, the IC50 [1] is reported as 68.3 ± 5.2 µM and the IC50 [2] is reported as 46.5 ± 3.9 µM. The IC50 [3] was 59.9 ± 4.4 µM and the IC50 at 72 h [4] was greater than 100 µM.
In the case of `CCON=C1C(=O)N(CCOC2O[C@@H]3O[C@@]4(C)CC[C@H]5[C@H](C)CC[C@@H]([C@H]2C)[C@@]35OO4)c2ccc(OC)cc21` (stereo partly drawn) [Hybrid 4i, 3-(ethoxyimino)-5-methoxy-1-(2-(((3R,5aS,6R,8aS,9R,12R,12aR)-3,6,9-trimethyldecahydro-12H-3,12-epoxy[1,2]dioxepino[4,3-i]isochromen-10-yl)oxy)ethyl)indolin-2-one], the “SI, selectivity index” value [1] is reported as greater than 1.4, the IC50 [1] is reported as 70.8 ± 5.9 µM and the IC50 [2] is reported as 50.1 ± 4.2 µM. The IC50 [3] was 52.2 ± 3.6 µM and the IC50 at 72 h [4] was greater than 100 µM.
In the case of `C[C@@H]1CC[C@H]2[C@@H](C)C(OCCN3C(=O)C(=NOCc4ccccc4)c4cc(F)ccc43)O[C@@H]3O[C@@]4(C)CC[C@@H]1[C@]32OO4` (stereo partly drawn) [Hybrid 4j, 3-((benzyloxy)imino)-5-fluoro-1-(2-(((3R,5aS,6R,8aS,9R,12R,12aR)-3,6,9-trimethyldecahydro-12H-3,12-epoxy[1,2]dioxepino[4,3-i]isochromen-10-yl)oxy)ethyl)indolin-2-one], the IC50 [1] is reported as greater than 100 µM, the IC50 [2] is reported as greater than 100 µM and the IC50 [3] is reported as greater than 100 µM. For the same molecule, the IC50 at 72 h [4] was greater than 100 µM.
`COc1ccc2c(c1)/C(=N\OCc1ccccc1)C(=O)N2CCOC1O[C@@H]2O[C@@]3(C)CC[C@H]4[C@H](C)CC[C@@H]([C@H]1C)[C@@]24OO3` (stereo partly drawn) [Hybrid 4k, (E)-3-((benzyloxy)imino)-5-methoxy-1-(2-(((3R,5aS,6R,8aS,9R,12R,12aR)-3,6,9-trimethyldecahydro-12H-3,12-epoxy[1,2]dioxepino[4,3-i]isochromen-10-yl)oxy)ethyl)indolin-2-one] showed an IC50 [1] greater than 100 µM, an IC50 [2] greater than 100 µM and an IC50 [3] greater than 100 µM. It also gave an IC50 at 72 h [4] greater than 100 µM.
